Columns and labels:
[1] = Cytotoxicity against human DU145 cells assessed as cell growth at 10^-8 M after 24 hrs by SRB assay; format: functional; details: DU-145, 24 h, read-out: Activity
[2] = Cytotoxicity against human HL-60(TB) cells assessed as cell growth at 10^-7 M after 24 hrs by SRB assay; format: functional; details: HL-60, 24 h, read-out: Activity
[3] = test system: NCI-H322M; assay: Cytotoxicity against human NCI-H322M cells assessed as cell growth at 10^-7 M after 24 hrs by SRB assay; format: functional; details: read-out: Activity
[4] = Cytotoxicity against human SNB75 cells assessed as cell growth at 10^-7 M after 24 hrs by SRB assay; format: functional; details: SNB-75, 24 h, read-out: Activity
[5] = Cytotoxicity against human IGROV1 cells assessed as cell growth at 10^-7 M after 24 hrs by SRB assay; format: functional; details: IGROV-1, 24 h, read-out: Activity
[6] = Cytotoxicity against human OVCAR4 cells assessed as cell growth at 10^-7 M after 24 hrs by SRB assay; format: functional; details: OVCAR-4, 24 h, read-out: Activity
[7] = Cytotoxicity against human HCC2998 cells after 24 hrs by SRB assay; format: functional, cell-based; details: HCC 2998, 24 h
[8] = Cytotoxicity against human SF539 cells after 24 hrs by SRB assay; format: functional, cell-based; details: SF-539, 24 h
[9] = test system: U-251; assay: Cytotoxicity against human U251 cells after 24 hrs by SRB assay; format: functional; details: U-251, 24 h
[10] = test system: NCI-H226; assay: Cytotoxicity against human NCI-H226 cells assessed as cell growth at 10^-4 M after 24 hrs by SRB assay; format: functional; details: NCI-H226, 24 h, read-out: Activity
[11] = Cytotoxicity against human HCC2998 cells assessed as cell growth at 10^-4 M after 24 hrs by SRB assay; format: functional; details: HCC 2998, 24 h, read-out: Activity
[12] = Cytotoxicity against human SF295 cells assessed as cell growth at 10^-4 M after 24 hrs by SRB assay; format: functional; details: SF-295, 24 h, read-out: Activity
[13] = test system: SN12C; assay: Cytotoxicity against human SN12C cells assessed as cell growth at 10^-7 M after 24 hrs by SRB assay; format: functional; details: read-out: Activity
[14] = Cytotoxicity against human TK10 cells assessed as cell growth at 10^-7 M after 24 hrs by SRB assay; format: functional; details: TK-10, 24 h, read-out: Activity
[15] = Cytotoxicity against human DU145 cells assessed as cell growth at 10^-7 M after 24 hrs by SRB assay; format: functional; details: DU-145, 24 h, read-out: Activity
[16] = test system: MDA-MB-231; assay: Cytotoxicity against human MDA-MB-231 cells assessed as cell growth at 10^-7 M after 24 hrs by SRB assay; format: functional; details: MDA-MB-231, 24 h, read-out: Activity
[17] = Cytotoxicity against human Hs 578T cells assessed as cell growth at 10^-7 M after 24 hrs by SRB assay; format: functional; details: read-out: Activity
[18] = Cytotoxicity against human HOP62 cells assessed as cell growth at 10^-6 M after 24 hrs by SRB assay; format: functional; details: HOP-62, 24 h, read-out: Activity
[19] = Cytotoxicity against human HCT116 cells assessed as cell growth at 10^-6 M after 24 hrs by SRB assay; format: functional; details: HCT-116, 24 h, read-out: Activity
[20] = Cytotoxicity against human SW620 cells assessed as cell growth at 10^-6 M after 24 hrs by SRB assay; format: functional; details: SW-620, 24 h, read-out: Activity
[21] = Cytotoxicity against human SNB75 cells assessed as cell growth at 10^-6 M after 24 hrs by SRB assay; format: functional; details: SNB-75, 24 h, read-out: Activity
[22] = test system: ACHN; assay: Cytotoxicity against human ACHN cells assessed as cell growth at 10^-6 M after 24 hrs by SRB assay; format: functional; details: read-out: Activity
[23] = Cytotoxicity against human RXF393 cells assessed as cell growth at 10^-6 M after 24 hrs by SRB assay; format: functional; details: RXF 393, 24 h, read-out: Activity
[24] = Cytotoxicity against human SKOV3 cells after 24 hrs by SRB assay; format: functional; details: SK-OV-3, 24 h
[25] = Cytotoxicity against human TK10 cells after 24 hrs by SRB assay; format: functional; details: TK-10, 24 h
[26] = test system: MDA-MB-231; assay: Cytotoxicity against human MDA-MB-231 cells after 24 hrs by SRB assay; format: functional, cell-based; details: MDA-MB-231, 24 h
[27] = Cytotoxicity against human RPMI8226 cells assessed as cell growth at 10^-8 M after 24 hrs by SRB assay; format: functional; details: RPMI-8226, 24 h, read-out: Activity
[28] = test system: NCI-H226; assay: Cytotoxicity against human NCI-H226 cells assessed as cell growth at 10^-8 M after 24 hrs by SRB assay; format: functional; details: NCI-H226, 24 h, read-out: Activity
[29] = test system: SK-MEL-5; assay: Cytotoxicity against human SK-MEL-5 cells assessed as cell growth at 10^-8 M after 24 hrs by SRB assay; format: functional; details: SK-MEL-5, 24 h, read-out: Activity
[30] = Cytotoxicity against human OVCAR4 cells assessed as cell growth at 10^-8 M after 24 hrs by SRB assay; format: functional; details: OVCAR-4, 24 h, read-out: Activity
[31] = test system: NCI-H522; assay: Cytotoxicity against human NCI-H522 cells assessed as cell growth at 10^-5 M after 24 hrs by SRB assay; format: functional; details: NCI-H522, 24 h, read-out: Activity
[32] = test system: A498; assay: Cytotoxicity against human A498 cells assessed as cell growth at 10^-5 M after 24 hrs by SRB assay; format: functional; details: A498, 24 h, read-out: Activity
[33] = Cytotoxicity against human Caki1 cells assessed as cell growth at 10^-5 M after 24 hrs by SRB assay; format: functional; details: CAKI-1, 24 h, read-out: Activity
[34] = Cytotoxicity against human PC3 cells assessed as cell growth at 10^-5 M after 24 hrs by SRB assay; format: functional; details: PC-3, 24 h, read-out: Activity
[35] = test system: K562; assay: Cytotoxicity against human K562 cells assessed as cell growth at 10^-4 M after 24 hrs by SRB assay; format: functional; details: K562, 24 h, read-out: Activity
[36] = read-out: LC50 (the source's name)
[37] = read-out: pLC50 (the source's name) (converted)

O=C(Nc1cc(-c2cccnc2)nc(NCCCN2CCOCC2)n1)c1cc(Br)cc(C(F)(F)F)c1
growth at 0.01 µM [1]: 103%
growth at 0.1 µM [2]: 96%
growth at 0.1 µM [3]: 107%
growth at 0.1 µM [4]: 84%
growth at 0.1 µM [5]: 108%
growth at 0.1 µM [6]: 90%
GI50 [7]: 1.78 µM
CC50 [7, 36]: 6.89 µM
TGI ([7]; read-out: TGI): 3.49 µM
CC50 [7, 37]: 6.92 µM
TGI ([7]; read-out: pTGI (converted)): 3.47 µM
GI50 ([8]; read-out: GI50): 1.67 µM
CC50 [8, 36]: 7.2 µM
TGI ([8]; read-out: TGI): 3.47 µM
GI50 ([8]; read-out: pGI50 (converted)): 1.66 µM
CC50 [8, 37]: 7.24 µM
TGI ([8]; read-out: pTGI (converted)): 3.47 µM
GI50 ([9]; read-out: GI50): 2.05 µM
CC50 [9, 36]: 9.04 µM
TGI ([9]; read-out: TGI): 4.3 µM
GI50 ([9]; read-out: pGI50 (converted)): 2.04 µM
CC50 [9, 37]: 9.12 µM
TGI ([9]; read-out: pTGI (converted)): 4.27 µM
growth at 100 µM [10]: -89%
growth at 100 µM [11]: -97%
growth at 100 µM [12]: -92%
growth at 0.1 µM [13]: 98%
growth at 0.1 µM [14]: 91%
growth at 0.1 µM [15]: 105%
growth at 0.1 µM [16]: 87%
growth at 0.1 µM [17]: 94%
growth at 1 µM [18]: 88%
growth at 1 µM [19]: 94%
growth at 1 µM [20]: 95%
growth at 1 µM [21]: 74%
growth at 1 µM [22]: 92%
growth at 1 µM [23]: 92%
GI50 ([24]; read-out: GI50): 7.26 µM
CC50 [24, 36]: 44.9 µM
TGI ([24]; read-out: TGI): 19.9 µM
GI50 ([24]; read-out: pGI50 (converted)): 7.24 µM
CC50 [24, 37]: 44.7 µM
TGI ([24]; read-out: pTGI (converted)): 20 µM
GI50 ([25]; read-out: GI50): 5.07 µM
CC50 [25, 36]: 43.3 µM
TGI ([25]; read-out: TGI): 18.1 µM
GI50 ([25]; read-out: pGI50 (converted)): 5.13 µM
CC50 [25, 37]: 43.7 µM
TGI ([25]; read-out: pTGI (converted)): 18.2 µM
IC50 [26]: 1.79 µM
GI50 ([26]; read-out: GI50): 1.79 µM
CC50 [26, 36]: 8.65 µM
TGI ([26]; read-out: TGI): 3.93 µM
GI50 ([26]; read-out: pGI50 (converted)): 1.78 µM
CC50 [26, 37]: 8.71 µM
TGI ([26]; read-out: pTGI (converted)): 3.89 µM
growth at 0.01 µM [27]: 103%
growth at 0.01 µM [28]: 92%
growth at 0.01 µM [29]: 95%
growth at 0.01 µM [30]: 95%
growth at 10 µM [31]: -32%
growth at 10 µM [32]: 13%
growth at 10 µM [33]: 3%
growth at 10 µM [34]: 23%
growth at 100 µM [35]: -7%

Reference: ChEMBL document CHEMBL3774345, “Synthesis of new diarylamides with pyrimidinyl pyridine scaffold and evaluation of their anti-proliferative effect on cancer cell lines” (Bioorg Med Chem Lett, 2016)
